# Values quoted from earlier work, collected in US20060241549A1, “Apparatus and method for precise ozone/oxygen delivery applied to the treatment of dermatological conditions, including gas gangrene, and related disorders” (priority 2005, published 2006).
# Conditions: as a gas, at room temperature
smiles,measurement,value
"O=[O+][O-] [ozone, Ozone]",half-life,approximately 50 minutes
